Data on 28 compounds can be found in ChEMBL document CHEMBL1157741, “Synthesis and antituberculosis activity of novel mefloquine-isoxazole carboxylic esters as prodrugs” (Bioorg Med Chem Lett, 2010).

The nature of series [1]: Selectivity index, ratio of IC50 for african green monkey Vero cells to MIC for Mycobacterium tuberculosis H37Rv by microplate alamar blue assay. In kind it is functional.
Another series concerns Vero. Briefly: Cytotoxicity against african green monkey Vero cells after 72 hrs. Type of series: cell-based. The note with it: Chlorocebus sabaeus.
Series [2] deals with Mycobacterium tuberculosis. Briefly: Antitubercular activity against Mycobacterium tuberculosis H37Rv after 28 hrs by low oxygen recovery assay. In kind it is functional.
For series [3], the system named is Mycobacterium tuberculosis. Description: Antitubercular activity against Mycobacterium tuberculosis H37Rv after 72 hrs by microplate alamar blue assay. Type of series: functional. On the technique in general: Resazurin is reduced to fluorescent resorufin, in cell work by metabolically active cells.
Series [4] in a line: Selectivity index, ratio of IC50 for african green monkey Vero cells to MIC for Mycobacterium tuberculosis H37Rv by low oxygen recovery assay. In kind it is functional.
For series [5], the system named is Mycobacterium tuberculosis. Description: Antitubercular activity against Mycobacterium tuberculosis H37Rv at pH 6 by microplate alamar blue assay. In kind it is functional.
Series [6] concerns Mycobacterium tuberculosis. Briefly: Antitubercular activity against Mycobacterium tuberculosis H37Rv at pH 6.8 by microplate alamar blue assay. In kind it is functional.
For the next series, the system named is Staphylococcus aureus. Briefly: Antimicrobial activity against Staphylococcus aureus. Type of series: functional.
In series [7] the test system is Mycolicibacterium smegmatis. Briefly: Antimicrobial activity against Mycobacterium smegmatis. Type of series: functional.
The subject of the next series is Candida albicans. Briefly: Antimicrobial activity against Candida albicans. Type of series: functional.
The next series deals with Escherichia coli. Description: Antimicrobial activity against Escherichia coli. Type of series: functional.
Another series relates to Bacillus anthracis. Briefly: Antimicrobial activity against Bacillus anthracis. Type of series: functional.
The test system of series [8] is Mycobacterium tuberculosis. Briefly: Antitubercular activity against Mycobacterium tuberculosis H37Rv at pH 6.8 by microplate alamar blue assay relative to control. Type of series: functional.
Series [9] has as its system Mycobacterium tuberculosis. Briefly: Antimicrobial activity against Mycobacterium tuberculosis Erdman. Type of series: functional.
A short description of series [10]: Toxicity in po dosed BALB/c mouse assessed as maximum tolerated dose treated for 5 days. Type of series: organism-based. The note with it: in vivo.
A short description of series [11]: Inhibition of CYP. In kind it is ADME.
Series [12] concerns Mycobacterium tuberculosis. Description: Antitubercular activity against Mycobacterium tuberculosis Erdman infected in mouse J774A.1 cells. Type of series: functional.

Values after ≈ are worked out from the molar mass of the structure shown.

For orientation: IC50 means the concentration at which inhibition is half-maximal. As a reminder, the MIC is the lowest concentration found to suppress growth. On to `CCOC(=O)c1cc(COc2ccc3ccc(C(F)(F)F)nc3c2)on1`, for which the “Selectivity Index” value in [1] is more than 25.6; in series [4], more than 5.9. In the series on Vero, this compound came in with an IC50 of more than 128 µM. For the same compound, the MIC came to 21.6 µM (≈ 7.91 µg/mL) in series [2] and 3.6 µM (≈ 1.32 µg/mL) in [3].

For `CCOC(=O)c1cc(COc2ccc3ccccc3n2)on1`, the “Selectivity Index” value in series [1] is more than 1.2; in [4] it was more than 2. Also, the IC50 in the series with Vero was more than 128 µM. Moreover, the MIC came to 64 µM (≈ 19.1 µg/mL) in [2] and 103 µM (≈ 30.8 µg/mL) in series [3].

With `CCOC(=O)c1cc(COc2ccc3ncccc3c2)on1`, the “Selectivity Index” value in series [1] is more than 17.3; in series [4] it was more than 10. Further, in the series with Vero, the IC50 is more than 128 µM. In addition, the MIC in [2] was found to be 12.8 µM (≈ 3.82 µg/mL); in series [3] it was 7.4 µM (≈ 2.21 µg/mL).

With `NNC(=O)c1ccncc1` [ISONIAZID], the MIC in series [5] and in series [6] was 0.1 µM (≈ 0.0137 µg/mL) each time.

Regarding `CCOC(=O)c1cc(COc2ccc([N+](=O)[O-])c(C(F)(F)F)c2)on1`, the “Selectivity Index” value in series [1] was more than 36.6; in series [4], more than 2.1. The compound also registered an IC50 in the series with Vero of more than 128 µM. In addition, the figures for the MIC in series [2] and in series [3] were 62.2 µM (≈ 22.4 µg/mL) and 3.5 µM (≈ 1.26 µg/mL), respectively.

`NNC(=O)c1cc(COc2cc(C(F)(F)F)nc3c(C(F)(F)F)cccc23)on1`: in the series on Vero, the IC50 was more than 128 µM. Further, the MIC in [2] and in [3] was more than 128 µM in each case.

`O=C(c1cc(COc2cc(C(F)(F)F)nc3c(C(F)(F)F)cccc23)on1)N1CCCCO1`: the IC50 in the series on Vero is more than 128 µM. In addition, the MIC in series [2] and in series [3] was more than 128 µM in each case.

Consider `CCOC(=O)c1cc(COc2cccc3ncccc23)on1`, for which the “Selectivity Index” value was more than 3.6 in [1] and more than 4.1 in [4]. The IC50 in the series on Vero is more than 128 µM. The values for the MIC in series [2] and in series [3] were 31.1 µM (≈ 9.28 µg/mL) and 35.1 µM (≈ 10.5 µg/mL), respectively.

Consider `CCN(CC)C(=O)c1cc(COc2cc(C(F)(F)F)nc3c(C(F)(F)F)cccc23)on1`, for which half-maximal inhibition with Vero (IC50) was put at 46.5 µM. For the same compound, the MIC in series [2] and in series [3] was more than 128 µM in each case.

Consider `CCCCCCOC(=O)c1cc(COc2cc(C(F)(F)F)nc3c(C(F)(F)F)cccc23)on1`, for which the “Selectivity Index” value was more than 8.4 in series [1] and more than 4.8 in [4]. Besides, in the series on Vero, the IC50 was more than 128 µM. Also, the MIC in series [2] worked out at 26.7 µM (≈ 13.1 µg/mL); in series [3] it was 15.3 µM (≈ 7.5 µg/mL).

With `NC(=O)c1cnccn1` [PYRAZINAMIDE], the MIC in [5] is 829 µM (≈ 102 µg/mL); in series [6], more than 4000 µM.

For `O=C(OCCC(F)(F)F)c1cc(COc2cc(C(F)(F)F)nc3c(C(F)(F)F)cccc23)on1`, the results for the “Selectivity Index” value in series [1] and in [4] were more than 5.1 and more than 4.3, respectively. The compound further registered an IC50 in the series on Vero of more than 128 µM. Moreover, the minimum inhibitory concentration (MIC) in series [2] came to 29.9 µM (≈ 15 µg/mL); in series [3] it was 25 µM (≈ 12.6 µg/mL).

Regarding `CCOC(=O)c1cc(COc2cccc3cccnc23)on1`, the “Selectivity Index” value in series [1] was more than 3.2; in [4], more than 1. Further, in the series on Vero, the IC50 was more than 128 µM. For the same compound, the MIC in series [2] came out at 125 µM (≈ 37.3 µg/mL); in series [3] it was 39.8 µM (≈ 11.9 µg/mL).

In the case of `CCCCOC(=O)c1cc(COc2cc(C(F)(F)F)nc3c(C(F)(F)F)cccc23)on1`, the “Selectivity Index” value is more than 109.1 in series [1] and more than 10.6 in series [4]. Also, the IC50 in the series with Vero turned out to be 106 µM. The MIC in series [2] turned out to be 9.9 µM (≈ 4.58 µg/mL); in series [3], 0.9 µM (≈ 0.416 µg/mL).

In the series on Vero, `CC(=O)OCc1cc(COc2cc(C(F)(F)F)nc3c(C(F)(F)F)cccc23)on1` came in with an IC50 of more than 128 µM. Also, the MIC in [2] and in [3] was more than 128 µM in each case.

On to `CCOC(=O)c1cc(COc2ccnc3ccccc23)on1`, for which, in series [1], the “Selectivity Index” value is more than 5.1. Moreover, in the series on Vero, the IC50 was more than 128 µM. Also, the MIC was 11.3 µM (≈ 3.37 µg/mL) in series [2] and 25.1 µM (≈ 7.49 µg/mL) in series [3].

As a reminder, the MTD is the highest dose tested that stayed within the study's limit of toxicity. On to `O=C(O)c1cc(COc2cc(C(F)(F)F)nc3c(C(F)(F)F)cccc23)on1`, for which the MIC was 7.7 µM (≈ 3.13 µg/mL) in [5]; 22 µM (≈ 8.94 µg/mL) against Staphylococcus aureus; more than 128 µM in [7]; more than 128 µM in the series with Candida albicans; more than 128 µM with Escherichia coli; 32 µM (≈ 13 µg/mL) with Bacillus anthracis. The MIC in [9] and in series [6] was more than 128 µM in each case. Further, the Activity in series [8] worked out at 89%. For the same compound, the MTD at 120 h in [10] was 400 mg/kg.

Consider `OCc1cc(COc2cc(C(F)(F)F)nc3c(C(F)(F)F)cccc23)on1`, for which the IC50 with Vero was more than 128 µM. For the same compound, the minimum inhibitory concentration (MIC) in [2] and in [3] was more than 128 µM in each case.

The term EC90 denotes the point of the concentration-response curve where the effect stands at 90%. A word on the EC99: it is the concentration needed for an effect of 99%. As for `CCOC(=O)c1cc(COc2cc(C(F)(F)F)nc3c(C(F)(F)F)cccc23)on1`, the “Selectivity Index” value in [1] is given as more than 142.2; in series [4], more than 10.5. Besides, the minimum inhibitory concentration (MIC) was 0.1 µM (≈ 0.0434 µg/mL) in series [5]; more than 128 µM with Staphylococcus aureus; more than 128 µM in [7]; more than 128 µM against Candida albicans; more than 128 µM in the series with Escherichia coli; more than 128 µM against Bacillus anthracis. Besides, the MIC came to 1.74 µM (≈ 0.756 µg/mL) in series [9], 12.1 µM (≈ 5.25 µg/mL) in series [2], 0.9 µM (≈ 0.391 µg/mL) in series [6] and 0.9 µM (≈ 0.391 µg/mL) in [3]. The “inhibition (INH)” value in series [11] is “Not Active”. Moreover, the EC90 in series [12] was 4.1 µM. Further, the EC99 in series [12] was determined as 18.3 µM. In the series with Vero, this compound registered an IC50 of more than 128 µM.

For the compound `CCCOC(=O)c1cc(COc2cc(C(F)(F)F)nc3c(C(F)(F)F)cccc23)on1`, the “Selectivity Index” value in series [1] is more than 71.2; in [4], more than 4.9. The compound further came in with an IC50 in the series with Vero of more than 128 µM. In addition, the MIC in series [2] is 26.1 µM (≈ 11.7 µg/mL); in [3], 1.8 µM (≈ 0.807 µg/mL).

On to `CCc1noc(-c2cc(COc3cc(C(F)(F)F)nc4c(C(F)(F)F)cccc34)on2)n1`, for which the 50% inhibitory concentration (IC50) with Vero was more than 128 µM. The MIC in [2] and in series [3] was more than 128 µM throughout.

`OC(c1cc(C(F)(F)F)nc2c(C(F)(F)F)cccc12)C1CCCCN1` (configuration not stated) [MEFLOQUINE]: the “Selectivity Index” value in series [1] is 0.9; in series [4], 1.6. Besides, the MIC in series [2] worked out at 7 µM (≈ 2.65 µg/mL); in series [3], 13 µM (≈ 4.92 µg/mL).

With `CCOC(=O)c1cc(COc2cc(C(F)(F)F)c3nc(C(F)(F)F)cc(OCc4cc(C(=O)OCC)no4)c3c2)on1`, the “Selectivity Index” value in series [1] was more than 7.3; in [4], more than 8.2. Moreover, the IC50 with Vero was more than 128 µM. Further, the MIC stood at 15.6 µM (≈ 9.41 µg/mL) in [2] and 17.6 µM (≈ 10.6 µg/mL) in series [3].

In the series with Vero, `NC(=O)c1cc(COc2cc(C(F)(F)F)nc3c(C(F)(F)F)cccc23)on1` gave an IC50 of more than 128 µM. In addition, the MIC in series [2] and in series [3] was more than 128 µM throughout.

`CO[C@H]1/C=C/O[C@@]2(C)Oc3c(C)c(O)c4c(O)c(c(/C=N/N5CCN(C)CC5)c(O)c4c3C2=O)NC(=O)/C(C)=C\C=C\[C@H](C)[C@H](O)[C@@H](C)[C@@H](O)[C@@H](C)[C@H](OC(C)=O)[C@@H]1C` [RIFAMPIN]: the MIC was determined as 2 µM (≈ 1.65 µg/mL) in [2], 0.1 µM (≈ 0.0823 µg/mL) in series [6] and 0.1 µM (≈ 0.0823 µg/mL) in [3].

Turning to `CCOC(=O)c1cc(COc2ccc3cc[nH]c3c2)on1`, the “Selectivity Index” value in [1] is more than 14.9; in series [4], more than 2.9. Further, the IC50 in the series with Vero is more than 128 µM. Moreover, the MIC in series [2] stood at 42.9 µM (≈ 12.3 µg/mL); in [3], 8.6 µM (≈ 2.46 µg/mL).

For `CCOC(=O)c1cc(COc2ccc3cccnc3c2)on1`, the “Selectivity Index” value in series [1] is more than 9.9; in [4], more than 2.7. Also, in the series with Vero, inhibition was half-maximal at 108 µM (IC50). For the same compound, the values for the minimal inhibitory concentration (MIC) in series [2] and in series [3] were 40.3 µM (≈ 12 µg/mL) and 10.8 µM (≈ 3.22 µg/mL), respectively.

Consider `O=C(OCc1ccccc1)c1cc(COc2cc(C(F)(F)F)nc3c(C(F)(F)F)cccc23)on1`, for which the “Selectivity Index” value in series [1] is listed as more than 4.8; in series [4], more than 2.5. For the same compound, the IC50 with Vero is more than 128 µM. The values for the MIC in series [2] and in series [3] were 50.7 µM (≈ 25.2 µg/mL) and 26.5 µM (≈ 13.2 µg/mL), respectively.
